Columns and labels:
[1] = biological target: Sodium-dependent dopamine transporter (Homo sapiens, UniProt Q01959); experiment: Selectivity interaction (Safety Panel 44tm (Eurofins)) EUB0000162b SLC6A3; conditions: at 10 µM
[2] = biological target: T1, Serine/threonine-protein kinase haspin (Homo sapiens) (UniProt Q8TF76); experiment: Selectivity interaction (Kinase panel (DSF assay)) EUB0001558a GSG2
T1 sequence (whole entry): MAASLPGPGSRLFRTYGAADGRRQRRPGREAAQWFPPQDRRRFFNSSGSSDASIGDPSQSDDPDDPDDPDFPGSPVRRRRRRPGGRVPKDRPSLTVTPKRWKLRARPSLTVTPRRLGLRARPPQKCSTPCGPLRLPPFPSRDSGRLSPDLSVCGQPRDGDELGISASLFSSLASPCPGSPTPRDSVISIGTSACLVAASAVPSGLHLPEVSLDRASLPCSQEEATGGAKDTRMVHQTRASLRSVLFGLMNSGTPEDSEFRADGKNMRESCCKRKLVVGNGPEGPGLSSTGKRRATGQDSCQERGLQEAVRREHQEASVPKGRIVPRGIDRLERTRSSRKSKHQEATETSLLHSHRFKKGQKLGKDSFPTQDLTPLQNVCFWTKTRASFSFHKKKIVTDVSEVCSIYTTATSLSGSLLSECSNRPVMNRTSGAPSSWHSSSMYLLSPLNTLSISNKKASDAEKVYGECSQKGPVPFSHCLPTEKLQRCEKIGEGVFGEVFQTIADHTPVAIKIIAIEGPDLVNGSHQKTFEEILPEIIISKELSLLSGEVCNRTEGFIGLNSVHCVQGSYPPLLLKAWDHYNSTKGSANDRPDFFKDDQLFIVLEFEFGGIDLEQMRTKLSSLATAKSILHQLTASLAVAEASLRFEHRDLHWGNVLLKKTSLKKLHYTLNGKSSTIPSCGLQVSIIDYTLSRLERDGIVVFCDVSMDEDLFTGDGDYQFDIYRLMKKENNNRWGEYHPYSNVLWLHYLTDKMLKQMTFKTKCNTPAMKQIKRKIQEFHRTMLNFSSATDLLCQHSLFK

[3] = biological target: Atypical kinase COQ8A, mitochondrial (Homo sapiens, UniProt Q8NI60); conditions: at 10 µM
[4] = biological target: Histone-lysine N-methyltransferase 2A (Homo sapiens) (UniProt Q03164); experiment: Selectivity interaction (Bromodomain panel (DSF asssay)) EUB0000270b MLL
[5] = biological target: T2, Dual specificity mitogen-activated protein kinase kinase 6 (Homo sapiens) (UniProt P52564); experiment: Selectivity interaction (Kinase panel (Invitrogen)) EUB0000639a MAP2K6; conditions: at 200 nM
T2 sequence (whole entry): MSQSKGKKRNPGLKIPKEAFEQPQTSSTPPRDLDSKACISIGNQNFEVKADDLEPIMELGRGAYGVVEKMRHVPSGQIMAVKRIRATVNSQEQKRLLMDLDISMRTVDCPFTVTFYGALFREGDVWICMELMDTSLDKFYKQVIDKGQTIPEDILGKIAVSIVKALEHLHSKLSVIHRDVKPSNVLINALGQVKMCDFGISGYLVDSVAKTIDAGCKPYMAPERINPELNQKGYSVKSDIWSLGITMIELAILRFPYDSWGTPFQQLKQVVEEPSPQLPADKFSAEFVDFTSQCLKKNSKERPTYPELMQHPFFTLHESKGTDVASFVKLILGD

[6] = biological target: 5'-AMP-activated protein kinase catalytic subunit alpha-2 (Homo sapiens) (UniProt P54646); experiment: Selectivity interaction (ActivX KiNativ screen (kinase selectivity in THP-1 cell lysates)) EUB0000639a PRKAA2; assay type: subcellular; conditions: lysate, at 0.2 µM
[7] = biological target: Calcium/calmodulin-dependent protein kinase type II subunit beta (Homo sapiens) (UniProt Q13554); experiment: Selectivity interaction (ActivX KiNativ screen (kinase selectivity in THP-1 cell lysates)) EUB0000639a CAMK2B; assay type: subcellular; conditions: lysate, at 0.01 µM
[8] = biological target: Fibroblast growth factor receptor 2 (Homo sapiens) (UniProt P21802); experiment: Selectivity interaction (KinomeScan (DiscoverX)) EUB0000618a FGFR2; conditions: at 10 µM
[9] = biological target: TRAF2 and NCK-interacting protein kinase (Homo sapiens) (UniProt Q9UKE5); experiment: Selectivity interaction (KinomeScan (DiscoverX)) EUB0000618a TNIK; conditions: at 10 µM
[10] = biological target: Tyrosine-protein kinase ABL1 (Homo sapiens, UniProt P00519); conditions: at 10 µM
[11] = biological target: Protein kinase C eta type (Homo sapiens) (UniProt P24723); experiment: Selectivity interaction (SelectScreen profiling (Invitrogen)) EUB0000607a PRKCH; conditions: at 2 µM
Sequence of Protein kinase C eta type (Homo sapiens) (P24723 whole entry): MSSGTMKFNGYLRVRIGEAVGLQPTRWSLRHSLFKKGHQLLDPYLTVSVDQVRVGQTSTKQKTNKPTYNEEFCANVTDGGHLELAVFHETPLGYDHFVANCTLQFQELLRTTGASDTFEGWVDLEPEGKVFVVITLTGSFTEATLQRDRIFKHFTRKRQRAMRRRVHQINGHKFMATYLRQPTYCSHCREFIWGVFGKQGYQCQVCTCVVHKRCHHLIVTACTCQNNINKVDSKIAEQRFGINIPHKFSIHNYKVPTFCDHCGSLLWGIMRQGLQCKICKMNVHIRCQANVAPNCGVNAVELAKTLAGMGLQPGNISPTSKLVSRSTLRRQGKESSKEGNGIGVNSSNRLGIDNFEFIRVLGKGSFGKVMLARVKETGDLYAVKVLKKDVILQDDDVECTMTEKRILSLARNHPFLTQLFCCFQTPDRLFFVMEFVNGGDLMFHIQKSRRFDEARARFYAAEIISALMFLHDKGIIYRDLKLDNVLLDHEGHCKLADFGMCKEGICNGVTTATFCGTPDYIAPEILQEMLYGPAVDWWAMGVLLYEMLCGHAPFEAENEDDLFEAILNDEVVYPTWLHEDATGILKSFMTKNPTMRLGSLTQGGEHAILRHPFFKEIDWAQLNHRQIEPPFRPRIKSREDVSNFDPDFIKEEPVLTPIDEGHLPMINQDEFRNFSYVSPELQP

Sequence of Tyrosine-protein kinase ABL1 (P00519 whole entry): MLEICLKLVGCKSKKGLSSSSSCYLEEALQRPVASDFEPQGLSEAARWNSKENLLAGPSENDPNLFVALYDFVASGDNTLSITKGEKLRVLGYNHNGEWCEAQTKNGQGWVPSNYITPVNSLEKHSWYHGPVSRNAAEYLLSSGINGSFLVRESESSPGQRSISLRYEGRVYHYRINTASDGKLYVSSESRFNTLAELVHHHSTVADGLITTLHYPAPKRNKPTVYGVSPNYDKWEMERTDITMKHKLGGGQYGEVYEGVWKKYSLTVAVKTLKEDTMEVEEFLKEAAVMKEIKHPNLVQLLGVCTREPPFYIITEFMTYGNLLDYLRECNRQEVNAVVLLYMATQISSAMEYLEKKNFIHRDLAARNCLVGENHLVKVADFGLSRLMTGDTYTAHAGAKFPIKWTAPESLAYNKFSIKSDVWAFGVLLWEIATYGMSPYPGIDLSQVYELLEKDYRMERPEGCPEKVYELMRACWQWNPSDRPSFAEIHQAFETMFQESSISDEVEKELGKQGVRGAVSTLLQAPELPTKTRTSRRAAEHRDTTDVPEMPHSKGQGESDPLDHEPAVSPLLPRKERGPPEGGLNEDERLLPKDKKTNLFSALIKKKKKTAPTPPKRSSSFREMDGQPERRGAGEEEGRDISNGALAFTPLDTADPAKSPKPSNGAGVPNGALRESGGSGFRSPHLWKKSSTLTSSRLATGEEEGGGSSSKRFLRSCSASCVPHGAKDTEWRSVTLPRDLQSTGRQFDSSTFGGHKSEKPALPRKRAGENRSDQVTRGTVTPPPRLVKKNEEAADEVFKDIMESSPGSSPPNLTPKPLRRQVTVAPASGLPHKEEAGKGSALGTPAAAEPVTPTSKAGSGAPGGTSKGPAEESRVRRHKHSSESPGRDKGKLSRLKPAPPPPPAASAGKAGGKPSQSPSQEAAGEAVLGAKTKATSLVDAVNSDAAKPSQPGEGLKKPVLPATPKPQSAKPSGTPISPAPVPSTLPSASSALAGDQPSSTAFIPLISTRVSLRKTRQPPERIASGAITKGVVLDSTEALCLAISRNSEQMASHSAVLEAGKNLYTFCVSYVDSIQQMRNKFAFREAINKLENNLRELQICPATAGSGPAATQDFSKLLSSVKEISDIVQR
Sequence of Calcium/calmodulin-dependent protein kinase type II subunit beta (Homo sapiens) (Q13554 whole entry): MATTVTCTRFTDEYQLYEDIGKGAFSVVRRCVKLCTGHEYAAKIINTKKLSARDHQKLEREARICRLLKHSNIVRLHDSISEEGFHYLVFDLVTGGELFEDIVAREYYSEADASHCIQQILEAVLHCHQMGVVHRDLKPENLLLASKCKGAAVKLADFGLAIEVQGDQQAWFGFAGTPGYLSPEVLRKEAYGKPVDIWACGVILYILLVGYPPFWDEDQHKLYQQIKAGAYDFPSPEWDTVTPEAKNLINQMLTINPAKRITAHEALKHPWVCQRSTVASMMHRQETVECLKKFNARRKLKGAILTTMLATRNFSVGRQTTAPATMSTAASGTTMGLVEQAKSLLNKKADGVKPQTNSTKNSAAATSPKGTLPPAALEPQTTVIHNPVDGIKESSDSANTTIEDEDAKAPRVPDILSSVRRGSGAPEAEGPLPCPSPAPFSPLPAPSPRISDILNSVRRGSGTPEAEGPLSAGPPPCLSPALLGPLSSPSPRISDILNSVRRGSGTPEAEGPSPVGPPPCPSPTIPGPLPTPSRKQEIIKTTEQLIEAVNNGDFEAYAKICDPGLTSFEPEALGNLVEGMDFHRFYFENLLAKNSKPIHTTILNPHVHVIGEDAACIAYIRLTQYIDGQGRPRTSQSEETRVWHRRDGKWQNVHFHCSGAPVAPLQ
Sequence of Atypical kinase COQ8A, mitochondrial (Q8NI60 163-647 limits assumed): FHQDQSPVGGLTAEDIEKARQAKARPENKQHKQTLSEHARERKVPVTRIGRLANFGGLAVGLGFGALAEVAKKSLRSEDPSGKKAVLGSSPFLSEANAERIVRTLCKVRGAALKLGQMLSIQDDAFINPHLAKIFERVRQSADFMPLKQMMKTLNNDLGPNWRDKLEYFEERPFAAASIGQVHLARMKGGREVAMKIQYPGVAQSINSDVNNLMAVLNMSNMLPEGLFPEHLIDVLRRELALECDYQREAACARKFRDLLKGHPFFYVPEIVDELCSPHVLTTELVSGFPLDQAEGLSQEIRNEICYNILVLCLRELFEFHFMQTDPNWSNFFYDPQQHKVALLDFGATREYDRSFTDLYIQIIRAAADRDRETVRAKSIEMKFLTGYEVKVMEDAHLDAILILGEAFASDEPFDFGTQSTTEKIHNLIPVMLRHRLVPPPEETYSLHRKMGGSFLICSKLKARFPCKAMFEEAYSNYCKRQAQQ
Sequence of 5'-AMP-activated protein kinase catalytic subunit alpha-2 (Homo sapiens) (P54646 whole entry, looked up): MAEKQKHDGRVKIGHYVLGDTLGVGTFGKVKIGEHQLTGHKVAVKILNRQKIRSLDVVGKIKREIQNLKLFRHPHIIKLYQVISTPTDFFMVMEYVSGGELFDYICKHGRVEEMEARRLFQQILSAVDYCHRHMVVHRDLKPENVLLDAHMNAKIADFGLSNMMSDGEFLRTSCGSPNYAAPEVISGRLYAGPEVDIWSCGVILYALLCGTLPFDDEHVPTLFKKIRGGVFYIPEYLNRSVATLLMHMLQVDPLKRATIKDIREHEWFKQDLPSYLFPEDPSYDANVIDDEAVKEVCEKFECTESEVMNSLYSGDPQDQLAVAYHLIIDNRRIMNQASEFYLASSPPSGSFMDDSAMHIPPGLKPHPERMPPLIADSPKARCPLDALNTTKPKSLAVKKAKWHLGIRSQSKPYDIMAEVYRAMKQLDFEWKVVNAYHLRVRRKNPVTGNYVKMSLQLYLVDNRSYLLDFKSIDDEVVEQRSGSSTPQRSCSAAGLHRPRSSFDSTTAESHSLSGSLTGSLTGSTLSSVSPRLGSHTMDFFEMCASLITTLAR
Sequence of Fibroblast growth factor receptor 2 (Homo sapiens) (P21802 22-821 limits assumed): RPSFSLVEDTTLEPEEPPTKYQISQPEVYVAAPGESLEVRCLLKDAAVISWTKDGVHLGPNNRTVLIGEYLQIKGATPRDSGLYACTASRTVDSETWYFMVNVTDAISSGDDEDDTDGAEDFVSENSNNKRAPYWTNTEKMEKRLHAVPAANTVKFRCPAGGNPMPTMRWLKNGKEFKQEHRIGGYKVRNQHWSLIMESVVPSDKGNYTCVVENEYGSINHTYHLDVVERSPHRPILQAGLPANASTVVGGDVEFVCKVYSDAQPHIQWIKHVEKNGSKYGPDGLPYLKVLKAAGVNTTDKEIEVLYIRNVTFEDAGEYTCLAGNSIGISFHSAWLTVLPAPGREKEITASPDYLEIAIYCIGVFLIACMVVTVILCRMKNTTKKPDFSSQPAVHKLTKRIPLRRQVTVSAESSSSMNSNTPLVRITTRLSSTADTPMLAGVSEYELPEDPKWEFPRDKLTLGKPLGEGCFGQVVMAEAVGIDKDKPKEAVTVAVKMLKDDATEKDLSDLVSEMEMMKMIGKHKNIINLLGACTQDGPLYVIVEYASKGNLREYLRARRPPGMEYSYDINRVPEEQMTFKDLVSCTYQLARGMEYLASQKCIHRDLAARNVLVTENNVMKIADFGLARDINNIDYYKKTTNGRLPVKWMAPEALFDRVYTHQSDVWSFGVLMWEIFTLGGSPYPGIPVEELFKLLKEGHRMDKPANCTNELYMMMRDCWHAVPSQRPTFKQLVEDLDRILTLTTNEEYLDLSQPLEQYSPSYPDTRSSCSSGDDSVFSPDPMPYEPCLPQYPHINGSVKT
Sequence of Sodium-dependent dopamine transporter (Q01959 whole entry): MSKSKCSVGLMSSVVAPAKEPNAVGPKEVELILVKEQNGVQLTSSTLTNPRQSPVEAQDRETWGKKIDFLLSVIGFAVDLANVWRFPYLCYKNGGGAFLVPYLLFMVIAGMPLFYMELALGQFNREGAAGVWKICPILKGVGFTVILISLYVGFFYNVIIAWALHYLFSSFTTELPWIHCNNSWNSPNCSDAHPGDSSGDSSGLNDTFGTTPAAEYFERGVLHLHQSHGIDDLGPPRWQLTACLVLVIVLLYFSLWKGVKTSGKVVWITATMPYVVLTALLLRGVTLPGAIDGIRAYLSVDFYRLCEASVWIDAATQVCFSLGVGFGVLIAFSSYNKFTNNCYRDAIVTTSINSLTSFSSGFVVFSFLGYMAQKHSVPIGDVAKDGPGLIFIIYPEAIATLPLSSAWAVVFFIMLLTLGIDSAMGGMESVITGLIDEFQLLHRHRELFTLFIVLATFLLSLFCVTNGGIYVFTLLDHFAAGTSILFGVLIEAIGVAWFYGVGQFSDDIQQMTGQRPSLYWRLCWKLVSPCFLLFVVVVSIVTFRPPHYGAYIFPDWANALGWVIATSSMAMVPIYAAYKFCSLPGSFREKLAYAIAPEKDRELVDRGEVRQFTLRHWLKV

Q: `CN(C)C(=O)Cn1cc(-c2ccc(-c3cncc4ccccc34)cc2)cn1` was tested. Which % of control [1] did it give?
A: 87%

Q: `CC(C)(O)[C@H](F)CN1Cc2cc(NC(=O)c3cnn4cccnc34)c(N3CCOCC3)cc2C1=O` was tested. Which dTM [2] did it give?
A: 0.4 K

Q: Which % of control [3] does the source give for `CCN(CC)CCCCNc1ncc2cc(-c3cc(OC)cc(OC)c3)c(NC(=O)NC(C)(C)C)nc2n1` here?
A: 100%

Q: For `Cc1cc(CN)cc(C)c1-c1ncn(C)c1-c1cncn1C`, which dTM [4] is on record?
A: -1.04 K

Q: Which results are given for `CC[C@@H]1[C@H](F)C(=O)N[C@@H]1COc1nccc2cc(C(N)=O)c(OC)cc12` [ZIMLOVISERTIB]?
A: % of inhibition [5]: 1.6%; % of inhibition [6]: -4.3%; % of inhibition [7]: 1.4%

Q: For `O[C@H]1CC[C@H](Nc2ncc3nc(Nc4c(F)cc(F)cc4F)n([C@H]4CCOC4)c3n2)CC1`, which % of control [8] is on record?
A: 83%

Q: And the % of control [9]?
A: 83%

Q: Which % of control [10] does the source give for `Cc1cc([C@@H](C)Nc2ccccc2C(=O)O)c2nc(N3CCOCC3)cc(=O)n2c1` [AZD-6482] here?
A: 100%

Q: For `CNC(=O)Nc1ccc(-c2nc(N3CC4CCC(C3)O4)c3cnn(C4CCC5(CC4)OCCO5)c3n2)cc1`, which % of inhibition [11] is on record?
A: 14%

Source: ChEMBL document CHEMBL5465560, “Selectivity Literature for EUbOPEN Chemogenomic Library” (2024)
